Data as given in article PMC10620772, “Design, synthesis, and biological evaluation of new pyrimidine-5-carbonitrile derivatives as novel anti-cancer, dual EGFR^WT/COX-2 inhibitors with docking studies” (RSC Advances, 2023).

How the values were obtained:
Experiment in all cases: NCI60 antitumor screening
Type in all cases: cell-based, human
[1] = tested on: CCRF-CEM
[2] = tested on: K-562
[3] = tested on: MOLT-4
[4] = tested on: RPMI-8226
[5] = tested on: A549/ATCC
[6] = tested on: EKVX
[7] = tested on: HOP-62
[8] = tested on: HOP-92
[9] = tested on: NCI-H226
[10] = tested on: NCI-H23
[11] = tested on: NCI-H460
[12] = tested on: NCI-H522
[13] = tested on: HCC-2998
[14] = tested on: HCT-116
[15] = tested on: HCT-15
[16] = tested on: HT29
[17] = tested on: KM12
[18] = tested on: SW-620
[19] = tested on: SF-295; conditions: Homo sapiens, SF-295; five-dose

SMILES: N#Cc1c(-c2ccc(F)cc2)nc(SCc2ccc(F)cc2)nc1N1CCNCC1 [4f, 2-((4-Fluorobenzyl)thio)-4-(4-fluorophenyl)-6-(piperazin-1-yl) pyrimidine-5-carbonitrile]
- GI% ([1]; 10 μM one-dose): 95.51%
- GI50 ([1]; Homo sapiens, CCRF-CEM, five-dose): 14.9 µM
- CC50 ([1]; Homo sapiens, CCRF-CEM, five-dose, read-out: LC50 (the source's name)): 76 µM
- inhibition at 10 µM ([1]; Homo sapiens, 10 μM single dose, CCRF-CEM (leukaemia), read-out: growth inhibition percent (GI%)): 95.5%
- TGI ([1]; five-dose): 33.60 µM
- GI% ([2]; 10 μM one-dose): 99.28%
- GI50 ([2]; Homo sapiens, K562, five-dose): 3.76 µM
- CC50 ([2]; Homo sapiens, K562, five-dose, read-out: LC50 (the source's name)): > 100 µM
- inhibition at 10 µM ([2]; Homo sapiens, 10 μM single dose, (leukaemia), read-out: growth inhibition percent (GI%)): 99.3%
- TGI ([2]; five-dose): 17.80 µM
- GI% ([3]; 10 μM one-dose): 92.21%
- GI50 ([3]; Homo sapiens, MOLT-4, five-dose): 10.5 µM
- CC50 ([3]; Homo sapiens, MOLT-4, five-dose, read-out: LC50 (the source's name)): 64.4 µM
- inhibition at 10 µM ([3]; Homo sapiens, 10 μM single dose, MOLT-4 (leukaemia), read-out: growth inhibition percent (GI%)): 92.2%
- TGI ([3]; five-dose): 26.00 µM
- GI50 ([4]; Homo sapiens, RPMI-8226, five-dose): 6.75 µM
- CC50 ([4]; Homo sapiens, RPMI-8226, five-dose, read-out: LC50 (the source's name)): 74.4 µM
- inhibition at 10 µM ([4]; Homo sapiens, 10 μM single dose, RPMI-8226 (leukaemia), read-out: growth inhibition percent (GI%)): > 100%
- TGI ([4]; five-dose): 24.60 µM
- GI50 ([5]; Homo sapiens, A549, five-dose): 11.5 µM
- LC50 (concentration killing 50% of cells) ([5]; Homo sapiens, A549, five-dose): 54.2 µM
- inhibition at 10 µM ([5]; Homo sapiens, 10 μM single dose, A549/ATCC (non-small cell lung cancer), read-out: growth inhibition percent (GI%)): > 100%
- TGI ([5]; five-dose): 25.00 µM
- GI% ([6]; 10 μM one-dose): 98.71%
- GI50 ([6]; Homo sapiens, EKVX, five-dose): 13.1 µM
- LC50 ([6]; Homo sapiens, EKVX, five-dose): 52.9 µM
- inhibition at 10 µM ([6]; Homo sapiens, 10 μM single dose, EKVX (non-small cell lung cancer), read-out: growth inhibition percent (GI%)): 98.7%
- TGI ([6]; five-dose): 26.40 µM
- GI50 ([7]; Homo sapiens, HOP-62, five-dose): 17 µM
- CC50 ([7]; Homo sapiens, HOP-62, five-dose, read-out: LC50 (the source's name)): 65.8 µM
- inhibition at 10 µM ([7]; Homo sapiens, 10 μM single dose, HOP-62 (non-small cell lung cancer), read-out: growth inhibition percent (GI%)): > 100%
- TGI ([7]; five-dose): 33.40 µM
- GI50 ([8]; Homo sapiens, HOP-92, five-dose): 7.64 µM
- CC50 ([8]; Homo sapiens, HOP-92, five-dose, read-out: LC50 (the source's name)): 53.4 µM
- inhibition at 10 µM ([8]; Homo sapiens, 10 μM single dose, HOP-92 (non-small cell lung cancer), read-out: growth inhibition percent (GI%)): > 100%
- TGI ([8]; five-dose): 22.10 µM
- GI50 ([9]; Homo sapiens, NCI-H226, five-dose): 15.9 µM
- CC50 ([9]; Homo sapiens, NCI-H226, five-dose, read-out: LC50 (the source's name)): 80.3 µM
- inhibition at 10 µM ([9]; Homo sapiens, 10 μM single dose, NCI-H226 (non-small cell lung cancer), read-out: growth inhibition percent (GI%)): 23.1%
- TGI ([9]; five-dose): 35.70 µM
- GI50 ([10]; Homo sapiens, NCI-H23, five-dose): 16 µM
- CC50 ([10]; Homo sapiens, NCI-H23, five-dose, read-out: LC50 (the source's name)): 57.5 µM
- inhibition at 10 µM ([10]; Homo sapiens, 10 μM single dose, NCI-H23 (non-small cell lung cancer), read-out: growth inhibition percent (GI%)): > 100%
- TGI ([10]; five-dose): 30.40 µM
- GI50 ([11]; Homo sapiens, NCI-H460, five-dose): 14.3 µM
- CC50 ([11]; Homo sapiens, NCI-H460, five-dose, read-out: LC50 (the source's name)): 60.4 µM
- inhibition at 10 µM ([11]; Homo sapiens, 10 μM single dose, NCI-H460 (non-small cell lung cancer), read-out: growth inhibition percent (GI%)): > 100%
- TGI ([11]; five-dose): 29.40 µM
- GI50 ([12]; Homo sapiens, NCI-H522, five-dose): 13.9 µM
- CC50 ([12]; Homo sapiens, NCI-H522, five-dose, read-out: LC50 (the source's name)): 64.3 µM
- inhibition at 10 µM ([12]; Homo sapiens, 10 μM single dose, NCI-H522 (non-small cell lung cancer), read-out: growth inhibition percent (GI%)): > 100%
- TGI ([12]; five-dose): 29.90 µM
- GI50 ([13]; Homo sapiens, HCC 2998, five-dose): 2.53 µM
- CC50 ([13]; Homo sapiens, HCC 2998, five-dose, read-out: LC50 (the source's name)): 6.27 µM
- inhibition at 10 µM ([13]; Homo sapiens, 10 μM single dose, HCC-2998 (colon cancer), read-out: growth inhibition percent (GI%)): > 100%
- TGI ([13]; five-dose): 3.22 µM
- GI50 ([14]; Homo sapiens, HCT-116, five-dose): 4.15 µM
- CC50 ([14]; Homo sapiens, HCT-116, five-dose, read-out: LC50 (the source's name)): 42.8 µM
- inhibition at 10 µM ([14]; Homo sapiens, 10 μM single dose, HCT-116 (colon cancer), read-out: growth inhibition percent (GI%)): > 100%
- TGI ([14]; five-dose): 15.60 µM
- GI50 ([15]; Homo sapiens, HCT-15, five-dose): 11.7 µM
- CC50 ([15]; Homo sapiens, HCT-15, five-dose, read-out: LC50 (the source's name)): 51.8 µM
- inhibition at 10 µM ([15]; Homo sapiens, 10 μM single dose, HCT-15 (colon cancer), read-out: growth inhibition percent (GI%)): > 100%
- TGI ([15]; five-dose): 24.60 µM
- inhibition at 10 µM ([16]; Homo sapiens, HT-29, 10 μM single dose, HT29 (colon cancer), read-out: growth inhibition percent (GI%)): > 100%
- GI50 ([16]; Homo sapiens, HT-29, five-dose): 4.87 µM
- CC50 ([16]; Homo sapiens, HT-29, five-dose, read-out: LC50 (the source's name)): 51.7 µM
- TGI ([16]; five-dose): 17.30 µM
- GI50 ([17]; Homo sapiens, KM12, five-dose): 18 µM
- CC50 ([17]; Homo sapiens, KM12, five-dose, read-out: LC50 (the source's name)): 63 µM
- inhibition at 10 µM ([17]; Homo sapiens, 10 μM single dose, KM12 (colon cancer), read-out: growth inhibition percent (GI%)): > 100%
- TGI ([17]; five-dose): 33.60 µM
- GI50 ([18]; Homo sapiens, SW-620, five-dose): 5.97 µM
- CC50 ([18]; Homo sapiens, SW-620, five-dose, read-out: LC50 (the source's name)): 48.7 µM
- inhibition at 10 µM ([18]; Homo sapiens, 10 μM single dose, SW-620 (colon cancer), read-out: growth inhibition percent (GI%)): > 100%
- TGI ([18]; five-dose): 19.30 µM
- GI50 [19]: 16.6 µM
